# Results reported in patent publication US20250212873A1, “VOLATILE HDAC INHIBITORS FOR THERAPEUTIC AND PLANT APPLICATIONS” (The Regents of the University of California, priority 2022, published 2025).
# Tests used:
# [1] = tested on: Class I and Class II HDACs; test: In vitro assays with purified human Class I and II HDACs (panel statements); type: biochemical; conditions: 15 mM in 1% DMSO; HDAC 1, 3, 4 and 6
# Description: Presented are data for selected compounds that act as Histone deacetylase inhibitors in vitro or HDAC inhibitors. 26 compounds were screened against purified human HDACs.
# HDAC activity of class I HDACs (HDAC1 and 3) was measured with the fluorometric HDAC Activity Assay kit: HDAC1 (10011563, Cayman Chemical, Ann Arbor, MI) and HDAC3 (50073 BPS Bioscience, San Diego, CA), according to the manufacturer's instructions. HDAC activity of class II HDACs (HDAC4 and HDAC6) was measured with the fluorometric HDAC Activity Assay kit: HDAC4, […] (50064 and 50076, BPS Bioscience, San Diego, CA), according to the manufacturer's instructions. All compounds were tested in single dose duplicate mode at 15 mM concentrations in 1% DMSO, based on the IC50 of 2,3-butanedione established in earlier work. Due to interference, concentrations of >30 mM were not used in the IC50 calculation. To account for any interference at lower concentrations, all baseline measurements of blank wells (no HDAC enzyme) were performed and subtracted with the various concentrations of 2,3-butanedione.
# Diacetyl and 3 structurally related VOCs were evaluated using in vitro assay kits for measuring activity of four purified HDACs. Of the four VOCs), each has a different functional group, two are natural in origin, previously detected from microbes that are known to be present in soil (M. C. Lemfack et al., Nucleic Acids Res 46, D1261-D1265 (2018); and R. H. Cagan, W. N. Zeiger, Proc. Nat. Acad. Sci. U.S.A. 75, 4679-4683 (1978)) and two that are not (α-angelica lactone and ethyl pyruvate). […] All 4 VOCs inhibited both Class I HDACs (L. L. Walling, The Myriad Plant Responses to Herbivores. J Plant Growth Regul 19, 195-216 (2000); and M. Heil, R. Karban, Trends Ecol Evol 25, 137-144 (2010)) and the Class II HDAC6 with differences in degree (FIG. 2A,B).
# [2] = tested on: mouse brain; test: Brain RNA-seq of mice exposed to diacetyl vapors; type: in vivo; conditions: 5 days
# Text: HDAC inhibitors are an important class of drugs being tested for a number of different conditions including neurodegenerative diseases and brain cancers. A major design challenge for such drugs is the ability to cross the blood-brain barrier. An interesting possibility that arises due to the volatility and small size of odorants is that they could diffuse through the intranasal route to the brain directly. To test whether cells in the brain respond to diacetyl vapors by altering gene expression RNA-seq experiments were carried out on mice exposed only to aroma of diacetyl for 5 days. Littermate controls were exposed in a similar manner to the solvent (PO) headspace.
# The DEGs from the diacetyl-exposed mouse brain transcriptome for several of these key genes were evaluated.
# [3] = tested on: PC3 Cancer cell line; test: Cancer cell viability assay, PC3; type: cell-based
# Description: (§1) Cells were maintained in a 37° C. incubator with 5% CO2 throughout the experiment. Compound stocks were dissolved in 10% DMSO, but final concentrations were made fresh in complete media as needed. 10% DMSO solvent was used as control in complete media. Cells were seeded onto 12-well plates and allowed 12-24 hours until treatment began to allow cells to adhere to wells. This was followed by minimum 5-day treatment of compounds, changing the media with treatment every 48 hours. Cell lines A549, PC3, and SK-MEL-5 were seeded at 8000 cells/well which would provide 80-100% confluency after 6-day growth. SH-SY5Y was seeded at 8000 cells/well then 16,000 cells/well due to slower growth and given at least 10 days for sufficient growth. After allotted growth times, cell counts were performed via Countess™ automated cell counter. All assays were completed with a minimum of triplicate replicates for all conditions and analyzed through GraphPad Prism One-way ANOVA for significance.
# [4] = tested on: A549 Cancer cell line; test: Cancer cell viability assay, A549; type: cell-based, human
# Description: as §1
# [5] = tested on: Arabidopsis thaliana leaflets; test: RNA-seq of leaflets of Arabidopsis exposed to diacetyl; type: in vivo
# Description: A. thaliana plants (Col-0) that had been transplanted at day 7 to soil were placed in the experimental room for 2 days to acclimate (23°° C. with a 12-hour light/dark cycle). A single potted plant was placed in a 4-liter clear glass jar, with openings attached to a vacuum to allow for air exchange. A small beaker containing 1 ml of 1% diacetyl in PO or PO alone were placed inside the jar. Plants were watered at 2.5 days. After 5 days, individual leaflets were dissected, and flash frozen in liquid nitrogen. Trizol-based RNA isolation was carried out as above. Two biological replicates were performed for each condition, with an average of 68,355,820 reads/replicate, with an average of 95% mapped. Multiplexed libraries were made from total RNA input using the Illumina TruSeq RNA sample preparation kit (v2) and 50 bps single-end sequencing was done using the NextSeq500.
# The HDACs are also important for gene expression in the shoots as well. Young plants in pots were exposed to vapors of diacetyl from a solution of the same concentration as before and performed an RNASeq analyses. 321 genes were differentially regulated in the leaflet of Arabidopsis thaliana following exposure to volatile diacetyl for 5 days (FDR<0.05). These DEGs are distributed across multiple chromosome locations and represent genes of diverse molecular functions (FIG. 27C). […]
# [6] = tested on: SK-MEL-5 Cancer cell line; test: Cancer cell viability assay, SK-MEL-5; type: cell-based; conditions: triplicates
# Description: as §1
# [7] = 0.1% headspace, |log2 fold-change|>1, FDR<0.05
# [8] = 1% headspace, |log2 fold-change|>1, FDR<0.01
structure (smiles),measurement,setting,value
"CC(=O)C(C)=O [2,3-butanedione]",HDAC inhibition against Class I and Class II HDACs,[1],inhibits both class 1 and class 2 HDACs
same,down regulated genes in mouse brain,[2]; [7],32 genes
same,up-regulated genes in mouse brain,[2]; [7],49 genes
same,down regulated genes in mouse brain,[2]; [8],1031 genes
same,up-regulated genes in mouse brain,[2]; [8],748 genes
same,Alk expression in mouse brain,[2]; exposed mice of FIG. 22B (1%),significantly downregulated
same,ERCC6L2 expression in mouse brain,[2]; exposed mice of FIG. 22B (1%),significantly downregulated
same,MycN expression in mouse brain,[2]; exposed mice of FIG. 22B (1%),significantly downregulated
same,NCAN expression in mouse brain,[2]; exposed mice of FIG. 22B (1%),significantly downregulated
same,STK33 expression in mouse brain,[2]; exposed mice of FIG. 22B (1%),significantly downregulated
same,"gene expression in the mouse brain (RNA-seq), in words","[2]; inhaled vapors, 0.1% or 1% solution headspace","changes in expression of a number of genes, in a dose dependent manner"
same,"inhibition of prostate cancer (PC3) cell line, summary",[3],has potential in inhibiting
same,"changes in proliferation, PC3","[3]; 33 uM, triplicates",No Significant changes in proliferations
same,"changes in proliferation, A549","[4]; 100 mM treatment, triplicates",No significant changes in proliferations
same,"inhibition of cell growth, A549",[4]; 33 micro-molar,may be some A549 inhibition
same,gene expression in leaflets (RNA-seq),[5]; volatile exposure,significant changes in gene expression
same,genes differentially regulated in the leaflet,"[5]; volatile exposure 5 days, 1% in PO, FDR<0.05",321 genes
same,"changes in proliferation, SK-MEL-5",[6]; 33 uM,No significant changes in proliferations
same,"changes in proliferation, SK-MEL-5",[6]; 100 uM,No significant changes in proliferations
